Measured values from patent US20050288360A1, “Nutraceutical compositions comprising epigallocatechin gallate and raspberry ketone” (priority 2002, published 2005).
Marks after values point to notes of the source that are not given here.

Legend:
[1] = tested on: C57BL6/J mice fed a high fat, high sucrose diet; experiment: 4-week body weight study in diet-induced obese mice; assay type: in vivo; details: for Body weight compared to control mice (in words): 4 week study period; for Body weight compared to control mice (in words) / Body weight, Initial / Body weight, Week 2 / Body weight, Week 4: high fat high sucrose diet; for Body weight, Initial: baseline, male C57BL6/J mice; for Body weight, Initial / Body weight, Week 2 / Body weight, Week 4: feed-ad-mix 1400 mg/kg BW/day each, group mean; for Body weight decrease, Week 2 / Body weight decrease, Week 4: decrease in comparison to control group, 1400 mg/kg BW/day each
Description: The efficacy of the combination of EGCG and RK as well as of both compounds alone on body weight and adiposity was tested in a 4-week study in C57BL6/J mice fed a high fat, high sucrose diet (n=8-11/group). This model of diet-induced obesity and early type 2 diabetes is widely used to determine the efficacy of anti-obesity compounds. Male C57BL6/J mice were obtained from Jackson Laboratory (Bar Harbor, Me., USA). Adult mice aged […] were used in the experiment. Mice were housed individually in plastic cages with bedding and allowed free access to a high fat, high sucrose mouse diet (Kliba # 2154, Klibamuehle, Kaiseraugst, Switzerland) and tap water. The animal rooms were controlled for temperature (24° C.), humidity (55%), and light (12-h light-dark cycle). The animals were randomized into four groups. EGCG and RK were administered as feed-ad-mix. Corn cellulose (2% of diet) served as a carrier substance for EGCG and RK as well as a placebo when used alone. Group 1 received placebo, group 2 received EGCG at a dose of 1400 mg/kg body weight (BW)/day, group 3 received RK at a dose of 1400 mg/kg BW/day, and group 4 received the combination of EGCG and RK at a doses of 1400 and 1400 mg/kg BW/day, respectively. Body weight and food intake were determined over the course of the study. All data are expressed as means for animals in each diet group. There was no difference in food intake between the groups over the study period. […] The decrease in body weight in comparison to the control group caused by each treatment was calculated (data are shown in Table 2). The expected treatment effect of the combined therapy with EGCG and RK was calculated by the sum of the effects exerted by monotherapy with EGCG or RK. The synergistic factor (SF) is defined as the quotient of the observed effect and the expected effect. If SF>1, a synergistic effect was exerted by the combined treatment.

[2] = tested on: C57BLKS/J db/db mice; experiment: 5-week body weight study in db/db mice; assay type: in vivo; details: for Body weight, Initial: baseline, male db/db mice, standard rodent food; for Body weight, Initial / Body weight, Week 2 / Body weight, Week 4: feed-ad-mix 1400 mg/kg BW/day each, group mean; for Body weight decrease, Week 2 / Body weight decrease, Week 4: decrease in comparison to control group, 1400 mg/kg BW/day each
Description: The efficacy of the combination of EGCG and RK as well as of both compounds alone on body weight and adiposity was tested in a 5-week study in C57BLKS/J db/db mice (n=8-9/group). This model of late type 2 diabetes with severe hyperglycemia and obesity is widely used to determine the efficacy of anti-diabetic and anti-obesity compounds. Male db/db mice were obtained from Jackson Laboratory (Bar Harbor, Me., USA). Adult mice aged 8 weeks were used in the experiment. Mice were housed individually in plastic cages with bedding and allowed free access to standard rodent food and tap water. The animal rooms were controlled for temperature (24° C.), humidity (55%), and light (12-h light-dark cycle). The animals were randomized into four groups. EGCG and RK were administered as feed-ad-mix. Corn cellulose (2% of diet) served as a carrier substance for EGCG and RK as well as a placebo when used alone. Group 1 received placebo, group 2 received EGCG at a dose of 1400 mg/kg BW/day, group 3 received RI<at a dose of 1400 mg/kg BW/day, and group 4 received the combination of EGCG and RK at a doses of 1400 and 1400 mg/kg BW/day, respectively. Body weight and food intake were determined over the course of the study. All data are expressed as means for animals in each diet group. There was no difference in food intake between the groups over the study period. The decrease in body weight in comparison to the control group caused by each treatment was calculated (data are shown in Table 4). The expected treatment effect of the combined therapy with EGCG and RK was calculated by the sum of the effects exerted by monotherapy with EGCG or RK. The synergistic factor (SF) is defined as the quotient of the observed effect and the expected effect. If SF>1, a synergistic effect was exerted by the combined treatment.

Structure (SMILES) | Body weight compared to control mice (in words) [1] | Body weight, Initial [1] | Body weight decrease, Week 2 [1] | Body weight decrease, Week 4 [1] | Body weight, Week 2 [1] | Body weight, Week 4 [1] | Body weight, Initial [2] | Body weight compared to untreated control (in words), after four weeks of treatment ([2]; db/db mice) | Body weight compared to control mice (in words), week 2 ([2]; db/db mice, week 2) | Body weight decrease, Week 2 ([2]; week 2) | Body weight decrease, Week 4 [2] | Body weight, Week 2 ([2]; week 2, db/db mice) | Body weight, Week 4 ([2]; db/db mice) | Body weight compared to control (in words), during the study period ([2]; db/db mice, whole study period)
O=C(O[C@@H]1Cc2c(O)cc(O)cc2O[C@@H]1c1cc(O)c(O)c(O)c1)c1cc(O)c(O)c(O)c1 [EGCG, epigallocatechin gallate] | significant decrease in body weight | 11.4 g | 2.7 g | 2.2 g | 17.7* g | 21.4* g | 32.2 g | neither EGCG nor RK caused a significant decrease in body weight | significant decrease in body weight | 3.0 g | 0.8 g | 35.7* g | 37.7 g | 
CC(=O)CCc1ccc(O)cc1 [RK, 4-(4-hydroxyphenyl)-2-butanone] | significant decrease in body weight | 11.5 g | 1.6 g | 1.5 g | 19.0* g | 22.1* g | 32.5 g | neither EGCG nor RK caused a significant decrease in body weight |  | 0.3 g | 0.4 g | 38.4 g | 38.0 g | did not significantly decrease body weight
